{"source": "the kinase profiling compilation of Christmann-Franck et al. (2016)", "experiment_in_all_cases": "KINOMEscan competition binding", "key": {"CIT (human)": {"molecular_target": "CIT (human) (UniProt O14578)"}, "PRKCQ (human)": {"molecular_target": "PRKCQ (human) (UniProt Q04759)"}, "[1]": {"molecular_target": "ABL1 (human), P00519 [T315I]"}, "IRAK1 (human)": {"molecular_target": "IRAK1 (human) (UniProt P51617)"}, "MAPK10 (human)": {"molecular_target": "MAPK10 (human) (UniProt P53779)"}, "ABL2 (human)": {"molecular_target": "ABL2 (human) (UniProt P42684)"}, "CDC2L2 (human)": {"molecular_target": "CDC2L2 (human) (UniProt Q9UQ88)"}, "EPHA1 (human)": {"molecular_target": "EPHA1 (human) (UniProt P21709)", "sequence (P21709 whole entry, looked up)": "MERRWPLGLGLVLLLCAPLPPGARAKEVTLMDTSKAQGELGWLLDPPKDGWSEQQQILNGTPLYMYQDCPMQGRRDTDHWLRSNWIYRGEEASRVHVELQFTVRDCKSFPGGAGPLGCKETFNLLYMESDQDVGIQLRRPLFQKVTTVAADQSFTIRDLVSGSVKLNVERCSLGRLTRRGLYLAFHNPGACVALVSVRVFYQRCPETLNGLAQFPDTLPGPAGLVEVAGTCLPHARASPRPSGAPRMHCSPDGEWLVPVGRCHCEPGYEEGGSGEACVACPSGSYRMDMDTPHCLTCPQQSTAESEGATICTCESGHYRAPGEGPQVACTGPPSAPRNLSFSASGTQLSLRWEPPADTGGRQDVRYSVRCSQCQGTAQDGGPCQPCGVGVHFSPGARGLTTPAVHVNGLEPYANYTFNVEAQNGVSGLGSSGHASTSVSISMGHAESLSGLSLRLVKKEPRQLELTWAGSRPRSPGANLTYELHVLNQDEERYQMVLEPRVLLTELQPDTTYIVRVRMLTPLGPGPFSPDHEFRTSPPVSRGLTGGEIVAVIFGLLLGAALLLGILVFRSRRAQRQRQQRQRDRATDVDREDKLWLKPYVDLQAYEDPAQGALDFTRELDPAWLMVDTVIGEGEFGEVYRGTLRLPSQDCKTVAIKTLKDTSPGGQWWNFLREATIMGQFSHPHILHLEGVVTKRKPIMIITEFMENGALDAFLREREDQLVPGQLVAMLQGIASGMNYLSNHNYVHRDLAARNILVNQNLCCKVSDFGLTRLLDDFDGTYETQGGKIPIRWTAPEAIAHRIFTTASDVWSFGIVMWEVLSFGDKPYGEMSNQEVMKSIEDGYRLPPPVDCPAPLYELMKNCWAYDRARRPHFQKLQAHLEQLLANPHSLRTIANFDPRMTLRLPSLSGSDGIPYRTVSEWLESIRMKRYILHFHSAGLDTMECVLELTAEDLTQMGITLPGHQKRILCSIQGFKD"}, "BMX (human)": {"molecular_target": "BMX (human) (UniProt P51813)"}, "CHUK (human)": {"molecular_target": "CHUK (human) (UniProt O15111)"}, "[2]": {"molecular_target": "MET (human), P08581 [M1250T]", "sequence (P08581 whole entry M1250T, looked up)": "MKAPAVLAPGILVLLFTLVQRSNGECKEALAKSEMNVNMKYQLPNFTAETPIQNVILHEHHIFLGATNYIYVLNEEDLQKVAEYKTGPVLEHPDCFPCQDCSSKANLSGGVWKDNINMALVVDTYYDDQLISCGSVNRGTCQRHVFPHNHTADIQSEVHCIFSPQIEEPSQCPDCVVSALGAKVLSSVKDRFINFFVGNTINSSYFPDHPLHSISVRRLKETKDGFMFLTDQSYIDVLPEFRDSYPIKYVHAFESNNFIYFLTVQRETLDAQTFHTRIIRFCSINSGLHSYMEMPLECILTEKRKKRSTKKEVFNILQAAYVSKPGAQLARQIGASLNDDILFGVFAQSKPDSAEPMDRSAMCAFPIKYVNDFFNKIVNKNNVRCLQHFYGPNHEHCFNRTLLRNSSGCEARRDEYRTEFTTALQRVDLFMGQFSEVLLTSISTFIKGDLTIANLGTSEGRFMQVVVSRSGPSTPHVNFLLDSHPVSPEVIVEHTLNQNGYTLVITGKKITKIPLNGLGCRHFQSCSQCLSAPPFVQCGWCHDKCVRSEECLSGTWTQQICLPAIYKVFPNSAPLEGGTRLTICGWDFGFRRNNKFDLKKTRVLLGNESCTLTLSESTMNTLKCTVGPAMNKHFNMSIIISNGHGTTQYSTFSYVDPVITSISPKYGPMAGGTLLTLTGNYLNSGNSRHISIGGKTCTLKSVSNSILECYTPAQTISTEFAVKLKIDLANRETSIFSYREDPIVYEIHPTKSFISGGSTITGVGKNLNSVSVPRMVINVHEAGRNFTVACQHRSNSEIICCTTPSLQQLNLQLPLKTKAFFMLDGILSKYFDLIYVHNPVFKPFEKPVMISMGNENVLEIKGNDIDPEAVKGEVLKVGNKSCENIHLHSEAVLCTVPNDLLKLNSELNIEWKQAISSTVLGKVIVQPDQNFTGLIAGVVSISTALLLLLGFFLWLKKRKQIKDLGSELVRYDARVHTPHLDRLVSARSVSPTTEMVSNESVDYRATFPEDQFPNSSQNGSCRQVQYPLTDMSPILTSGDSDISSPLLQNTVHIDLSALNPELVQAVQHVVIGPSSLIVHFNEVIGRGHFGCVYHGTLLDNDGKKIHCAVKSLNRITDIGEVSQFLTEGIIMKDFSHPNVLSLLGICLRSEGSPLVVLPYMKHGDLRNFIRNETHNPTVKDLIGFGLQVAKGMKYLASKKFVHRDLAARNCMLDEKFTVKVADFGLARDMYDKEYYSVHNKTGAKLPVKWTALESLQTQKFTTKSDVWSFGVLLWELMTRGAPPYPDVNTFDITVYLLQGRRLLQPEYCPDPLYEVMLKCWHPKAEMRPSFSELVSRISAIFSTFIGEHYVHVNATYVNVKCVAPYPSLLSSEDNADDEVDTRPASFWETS"}, "[3]": {"molecular_target": "FLT3 (human), P36888 [D835Y]"}, "MAP2K2 (human)": {"molecular_target": "MAP2K2 (human) (UniProt P36507)"}, "[4]": {"molecular_target": "PIK3CA (human), P42336 [Q546K]"}, "ADCK4 (human)": {"molecular_target": "ADCK4 (human) (UniProt Q96D53)"}, "MYO3B (human)": {"molecular_target": "MYO3B (human) (UniProt Q8WXR4)"}, "LTK (human)": {"molecular_target": "LTK (human) (UniProt P29376)"}, "MAPK12 (human)": {"molecular_target": "MAPK12 (human) (UniProt P53778)"}, "ROS1 (human)": {"molecular_target": "ROS1 (human) (UniProt P08922)"}, "FGFR1 (human)": {"molecular_target": "FGFR1 (human) (UniProt P11362)"}, "INSRR (human)": {"molecular_target": "INSRR (human) (UniProt P14616)"}, "MAP3K3 (human)": {"molecular_target": "MAP3K3 (human) (UniProt Q99759)"}, "[5]": {"molecular_target": "BRAF (human), P15056 [V600E]"}, "EPHB6 (human)": {"molecular_target": "EPHB6 (human) (UniProt O15197)", "sequence (O15197 whole entry, looked up)": "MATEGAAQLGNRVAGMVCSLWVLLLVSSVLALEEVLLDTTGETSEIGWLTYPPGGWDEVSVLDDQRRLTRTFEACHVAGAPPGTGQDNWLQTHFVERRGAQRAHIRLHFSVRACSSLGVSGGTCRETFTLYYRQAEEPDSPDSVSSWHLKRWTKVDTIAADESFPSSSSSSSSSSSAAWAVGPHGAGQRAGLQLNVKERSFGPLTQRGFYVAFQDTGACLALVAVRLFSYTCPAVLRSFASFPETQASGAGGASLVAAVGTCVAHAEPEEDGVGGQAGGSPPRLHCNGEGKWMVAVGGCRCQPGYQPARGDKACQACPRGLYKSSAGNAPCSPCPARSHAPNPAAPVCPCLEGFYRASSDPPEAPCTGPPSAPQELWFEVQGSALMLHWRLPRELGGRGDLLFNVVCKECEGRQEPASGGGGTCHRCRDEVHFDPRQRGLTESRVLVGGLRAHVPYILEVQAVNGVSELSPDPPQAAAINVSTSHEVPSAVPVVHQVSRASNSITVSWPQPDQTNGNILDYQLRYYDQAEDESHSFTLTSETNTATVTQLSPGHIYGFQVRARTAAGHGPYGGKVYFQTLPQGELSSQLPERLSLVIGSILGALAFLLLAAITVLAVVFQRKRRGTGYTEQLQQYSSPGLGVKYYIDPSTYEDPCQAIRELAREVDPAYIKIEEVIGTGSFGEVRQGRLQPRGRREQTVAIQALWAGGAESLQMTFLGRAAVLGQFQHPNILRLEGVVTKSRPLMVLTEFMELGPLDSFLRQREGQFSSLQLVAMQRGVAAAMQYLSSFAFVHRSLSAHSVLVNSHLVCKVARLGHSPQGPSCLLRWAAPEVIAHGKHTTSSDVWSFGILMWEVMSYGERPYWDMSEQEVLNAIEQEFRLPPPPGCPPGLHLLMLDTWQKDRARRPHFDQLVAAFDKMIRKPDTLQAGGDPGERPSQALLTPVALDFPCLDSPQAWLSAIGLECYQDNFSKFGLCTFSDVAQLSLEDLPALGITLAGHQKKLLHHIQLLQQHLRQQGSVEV"}, "ANKK1 (human)": {"molecular_target": "ANKK1 (human) (UniProt Q8NFD2)"}, "[6]": {"molecular_target": "ABL1 (human), P00519 [F317L]"}, "MAPK8 (human)": {"molecular_target": "MAPK8 (human) (UniProt P45983)"}, "RIPK1 (human)": {"molecular_target": "RIPK1 (human) (UniProt Q13546)"}, "NTRK2 (human)": {"molecular_target": "NTRK2 (human) (UniProt Q16620)"}, "HIPK3 (human)": {"molecular_target": "HIPK3 (human) (UniProt Q9H422)", "sequence (Q9H422 whole entry, looked up)": "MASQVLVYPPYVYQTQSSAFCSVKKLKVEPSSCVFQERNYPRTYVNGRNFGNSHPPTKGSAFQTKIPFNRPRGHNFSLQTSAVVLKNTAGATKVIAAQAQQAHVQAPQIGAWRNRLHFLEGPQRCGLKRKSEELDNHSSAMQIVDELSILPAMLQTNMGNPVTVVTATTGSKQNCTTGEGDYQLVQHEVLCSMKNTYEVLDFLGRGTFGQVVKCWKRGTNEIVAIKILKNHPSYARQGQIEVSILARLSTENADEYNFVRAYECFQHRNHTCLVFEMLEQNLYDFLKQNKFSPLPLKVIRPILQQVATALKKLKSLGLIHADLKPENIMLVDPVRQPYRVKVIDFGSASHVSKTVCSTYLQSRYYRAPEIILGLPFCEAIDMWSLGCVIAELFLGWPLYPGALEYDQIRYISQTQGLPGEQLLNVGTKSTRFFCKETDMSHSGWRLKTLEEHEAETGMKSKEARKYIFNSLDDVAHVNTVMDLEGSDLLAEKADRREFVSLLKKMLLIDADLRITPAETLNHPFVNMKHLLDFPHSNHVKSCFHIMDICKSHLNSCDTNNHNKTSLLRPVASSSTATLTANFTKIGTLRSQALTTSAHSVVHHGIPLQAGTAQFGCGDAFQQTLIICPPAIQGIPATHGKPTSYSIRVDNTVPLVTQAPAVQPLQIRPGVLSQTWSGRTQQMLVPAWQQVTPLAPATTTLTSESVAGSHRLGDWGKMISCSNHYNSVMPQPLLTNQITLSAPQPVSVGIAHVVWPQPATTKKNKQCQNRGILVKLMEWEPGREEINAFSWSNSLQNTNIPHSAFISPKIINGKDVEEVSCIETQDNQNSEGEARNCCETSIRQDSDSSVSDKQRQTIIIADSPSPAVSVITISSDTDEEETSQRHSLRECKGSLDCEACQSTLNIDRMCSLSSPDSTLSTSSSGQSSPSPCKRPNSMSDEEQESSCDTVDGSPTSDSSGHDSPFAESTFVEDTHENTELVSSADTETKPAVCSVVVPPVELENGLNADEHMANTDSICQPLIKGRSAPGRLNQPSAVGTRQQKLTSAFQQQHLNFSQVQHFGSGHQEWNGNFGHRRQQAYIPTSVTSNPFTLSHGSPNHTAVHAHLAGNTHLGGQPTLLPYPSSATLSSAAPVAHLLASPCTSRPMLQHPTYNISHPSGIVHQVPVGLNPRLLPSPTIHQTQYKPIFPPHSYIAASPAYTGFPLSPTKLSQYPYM"}, "TAOK2 (human)": {"molecular_target": "TAOK2 (human) (UniProt Q9UL54)"}, "PRKACB (human)": {"molecular_target": "PRKACB (human) (UniProt P22694)"}, "LYN (human)": {"molecular_target": "LYN (human) (UniProt P07948)"}, "EPHB3 (human)": {"molecular_target": "EPHB3 (human) (UniProt P54753)"}, "RAF1 (human)": {"molecular_target": "RAF1 (human) (UniProt P04049)"}, "CaMK1 (human)": {"molecular_target": "CaMK1 (human) (UniProt Q14012)"}, "[7]": {"molecular_target": "EIF2AK4 KD2 (human), Q9P2K8 [S808G]"}, "FYN (human)": {"molecular_target": "FYN (human) (UniProt P06241)"}, "ROCK2 (human)": {"molecular_target": "ROCK2 (human) (UniProt O75116)"}, "TNIK (human)": {"molecular_target": "TNIK (human) (UniProt Q9UKE5)"}, "MAP2K1 (human)": {"molecular_target": "MAP2K1 (human) (UniProt Q02750)", "sequence (Q02750 whole entry, looked up)": "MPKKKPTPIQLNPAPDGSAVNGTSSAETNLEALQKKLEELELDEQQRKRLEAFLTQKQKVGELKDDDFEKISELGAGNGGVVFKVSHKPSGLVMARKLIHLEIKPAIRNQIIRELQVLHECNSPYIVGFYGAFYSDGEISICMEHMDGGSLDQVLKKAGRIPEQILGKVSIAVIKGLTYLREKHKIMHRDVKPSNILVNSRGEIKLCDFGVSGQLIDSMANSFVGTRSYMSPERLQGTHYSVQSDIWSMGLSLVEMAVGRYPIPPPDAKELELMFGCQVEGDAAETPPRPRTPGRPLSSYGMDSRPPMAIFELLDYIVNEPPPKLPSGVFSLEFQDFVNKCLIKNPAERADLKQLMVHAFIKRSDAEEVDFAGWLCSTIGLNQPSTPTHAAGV"}}, "data": [{"molecule": "COc1cc2ncnc(Oc3cccc(NC(=O)Nc4cc(C(C)(C)C(F)(F)F)on4)c3)c2cc1OC", "values": [{"measurement": "Kd", "setting": "CIT (human)", "value": 210, "unit": "nM"}, {"measurement": "Kd", "setting": "PRKCQ (human)", "value": 13000, "unit": "nM"}, {"measurement": "Kd", "setting": "[1]", "value": 2.6, "unit": "nM"}, {"measurement": "Kd", "setting": "IRAK1 (human)", "value": 9600, "unit": "nM"}, {"measurement": "Kd", "setting": "MAPK10 (human)", "value": 88, "unit": "nM"}, {"measurement": "Kd", "setting": "ABL2 (human)", "value": 14, "unit": "nM"}, {"measurement": "Kd", "setting": "CDC2L2 (human)", "value": 170, "unit": "nM"}, {"measurement": "Kd", "setting": "EPHA1 (human)", "value": 140, "unit": "nM"}, {"measurement": "Kd", "setting": "BMX (human)", "value": 820, "unit": "nM"}, {"measurement": "Kd", "setting": "CHUK (human)", "value": 170, "unit": "nM"}, {"measurement": "Kd", "setting": "[2]", "value": 2100, "unit": "nM"}, {"measurement": "Kd", "setting": "[3]", "value": 230, "unit": "nM"}, {"measurement": "Kd", "setting": "MAP2K2 (human)", "value": 8300, "unit": "nM"}, {"measurement": "Kd", "setting": "[4]", "value": 28000, "unit": "nM"}, {"measurement": "Kd", "setting": "ADCK4 (human)", "value": 26000, "unit": "nM"}, {"measurement": "Kd", "setting": "MYO3B (human)", "value": 6800, "unit": "nM"}, {"measurement": "Kd", "setting": "LTK (human)", "value": 1200, "unit": "nM"}, {"measurement": "Kd", "setting": "MAPK12 (human)", "value": 1300, "unit": "nM"}, {"measurement": "Kd", "setting": "ROS1 (human)", "value": 2500, "unit": "nM"}, {"measurement": "Kd", "setting": "FGFR1 (human)", "value": 840, "unit": "nM"}, {"measurement": "Kd", "setting": "INSRR (human)", "value": 31000, "unit": "nM"}, {"measurement": "Kd", "setting": "MAP3K3 (human)", "value": 11000, "unit": "nM"}, {"measurement": "Kd", "setting": "[5]", "value": 14, "unit": "nM"}, {"measurement": "Kd", "setting": "EPHB6 (human)", "value": 92, "unit": "nM"}, {"measurement": "Kd", "setting": "ANKK1 (human)", "value": 4600, "unit": "nM"}, {"measurement": "Kd", "setting": "[6]", "value": 3.8, "unit": "nM"}, {"measurement": "Kd", "setting": "MAPK8 (human)", "value": 100, "unit": "nM"}, {"measurement": "Kd", "setting": "RIPK1 (human)", "value": 3200, "unit": "nM"}, {"measurement": "Kd", "setting": "NTRK2 (human)", "value": 1000, "unit": "nM"}, {"measurement": "Kd", "setting": "HIPK3 (human)", "value": 120, "unit": "nM"}, {"measurement": "Kd", "setting": "TAOK2 (human)", "value": 1600, "unit": "nM"}, {"measurement": "Kd", "setting": "PRKACB (human)", "value": 20000, "unit": "nM"}, {"measurement": "Kd", "setting": "LYN (human)", "value": 2, "unit": "nM"}, {"measurement": "Kd", "setting": "EPHB3 (human)", "value": 3800, "unit": "nM"}, {"measurement": "Kd", "setting": "RAF1 (human)", "value": 39, "unit": "nM"}, {"measurement": "Kd", "setting": "CaMK1 (human)", "value": 8800, "unit": "nM"}, {"measurement": "Kd", "setting": "[7]", "value": 4400, "unit": "nM"}, {"measurement": "Kd", "setting": "FYN (human)", "value": 130, "unit": "nM"}, {"measurement": "Kd", "setting": "ROCK2 (human)", "value": 37000, "unit": "nM"}, {"measurement": "Kd", "setting": "TNIK (human)", "value": 66, "unit": "nM"}, {"measurement": "Kd", "setting": "MAP2K1 (human)", "value": 7100, "unit": "nM"}]}]}
